Test [1] concerns C. albicans cap1/cap1 mutant strain, CAC1-1A. Briefly: Filamentous growth in SLAD agar with exogenous cAMP or dbcAMP. Format: cell-based, Candida albicans. The conditions noted are these: SLAD media, 10 mM, 37° C.; for colony morphology / filamentous growth of the cap1/cap1 mutant: 5 days. The protocol:
(§1) To determine the effect of exogenous cAMP on bud-hypha transitions and filamenious growth of cap1/cap1 mutants, stationary phase yeasts were induced to form germ tubes and hyphae in liquid M199+serum (10^6 cells/ml) or in SLAD agar plates containing 10 mM cAMP or dbcAMP (Sigma). M199+serum containing cAMP or dbcAMP were incubated at 37° C. for 20 h and the frequency of germ tube formation was measured at various time points. SLAD plates containing cAMP or dbcAMP were incubated at 37° C. for 5 days, and filamentous growth was monitored daily.

The subject of test [2] is C. albicans wild type CAP1/CAP1 strain, UnoPP-1. Type of test: cell-based, Candida albicans. The conditions noted are these: SLAD media, 10 mM, 37° C.
In test [3] the test system is C. albicans pde2/pde2 mutant (BPS4). The conditions noted are these: for relative growth (CFU vs YNB alone) of the pde2/pde2 mutant: 6 h; for doubling time of pde2/pde2 mutants: 30° C.; for swollen pde2/pde2 mutant cells: YNB, 6 hours. The protocol: (§2) C. albicans strains were grown in YNB at 30° C. to middle-logarithmic phase, and then an equal number of cells were subcultured into YNB or YNB containing 4 mM and 40 mM cAMP and grown for 6 to 9 hours. Every hour during incubation, optical density and cell number/ml of cultures were measured by a photoelectric colorimeter (Klett-Summerson, Klett MFG. Co., Inc, NY, N.Y.) and hemacytometer, respectively. The percent of dead cells was determined by staining with 0.1% methylene blue (Sigma, St. Louis, Mo.). Also, cell morphologies were observed by microscopy. After a 6-hour incubation of each strain with YNB containing the indicated amounts of exogenous cAMP, culture samples were serially diluted, spread on YPD plates, and incubated for 2 days to determine the number of colony forming units (CFU). The percent relative growth was calculated by using the following formula: [(CFU of a strain incubated for 6 h in YNB having an indicated concentration of cAMP)/(CFU of the strain incubated for 6 h in YNB only)]×100%.

In test [4] the test system is C. albicans strains with a wild type PDE2 gene (UnoPP-1, BPS1, BPS9). The conditions noted are these: YNB, 4 mM and 40 mM cAMP. On the procedure:
as §2

For test [5], the system named is PDE2 mRNA in C. albicans cap1/cap1 mutant. The conditions noted are these: cAMP 10 mM, germ tube induction conditions, data not shown.
The test system of test [6] is C. albicans cap1/cap1 mutant strain, CAC1-1A. Put plainly: Bud-hypha transitions in liquid M199+serum with exogenous cAMP or dbcAMP. The conditions noted are these: 10 mM. Format: cell-based, Candida albicans. On the procedure:
as §1

In test [7] the test system is C. albicans cap1/cap1 pde2/pde2 mutant (BPS18). Put plainly: Filamentation in SLAD agar with or without dbcAMP. Type of test: cell-based, Candida albicans. The conditions noted are these: SLAD agar media, 10 mM dbcAMP.
Method: Filamentous growth of each strain was induced at 37° C. for 6 days in solid Spider media (a11-15) and 2% agar media containing 4% bovine calf serum (a16-20).
For growth analysis in agar-containing media, stationary-phase yeasts were mixed (200 cells/25 ml of medium) with liquefied agar Spider medium (Liu et al., 266 SCIENCE 1723-1726 (1994)), SLAD (synthetic low ammonium dextrose)(Csank et al., 66 INFECT. IMMUN. 2713-2721 (1998)), and 2% agar containing 4% bovine calf serum (Lo et al., 90 CELL 939-949 (1997).

Like-named read-outs stand apart in the source and are kept apart here.

On to `Nc1ncnc2c1ncn2[C@@H]1O[C@@H]2COP(=O)(O)O[C@H]2[C@H]1O` [cAMP, cyclic AMP], for which, in test [1], the “timing of onset of filamentous growth of the cap1/cap1 mutant” value is “two”. In addition, in test [1], the “colony morphology / filamentous growth of the cap1/cap1 mutant” value is given as “dramatically altered the colony morphology”. For the same compound, in test [2], the “filamentous growth of the wild type strain” value is “slightly enhanced”. Further, the results for the “relative growth (CFU vs YNB alone) of the pde2/pde2 mutant” value in test [3] (YNB containing 4 mM cAMP) and in test [3] (YNB containing 40 mM cAMP) were “about 70%” and roughly 40%, respectively. Also, the “doubling time of pde2/pde2 mutants” value in test [3] (YNB with 4 mM cAMP) was found to be 3.7 h; in test [3] (YNB with 40 mM cAMP), 4.8 h. For the same compound, the “swollen pde2/pde2 mutant cells” value in test [3] (4 mM cAMP) was ~50 % of cells; in test [3] (40 mM cAMP), “greater than 90 % of cells”. Moreover, the “relative growth rate of strains with a wild type PDE2 gene” value in test [4] was “not affected”. The “PDE2 mRNA expression in the cap1/cap1 mutant” value in test [5] is “the same with or without exogenous cAMP”.

As for `CCCC(=O)Nc1ncnc2c1ncn2[C@@H]1O[C@@H]2COP(=O)(O)O[C@H]2[C@H]1OC(=O)CCC` [dbcAMP, dibutyryl cAMP], in test [1], the “timing of onset of filamentous growth of the cap1/cap1 mutant” value is on record as “two” and the “colony morphology / filamentous growth of the cap1/cap1 mutant” value is recorded as “dramatically altered the colony morphology”. Moreover, the “filamentous growth of the wild type strain” value in test [2] is “slightly enhanced”. In addition, in test [6] (37° C., 10^6 cells/ml), the “hypha formation of the cap1/cap1 mutant in liquid media” value was “enhanced”. In addition, in test [6] (at 3 h), the “pseudohyphae detected in the presence vs absence of dbcAMP” value is given as “twice as many pseudohyphae”. The “filamentation of the cap1/cap1 pde2/pde2 mutant” value in test [7] was “increase filamentation of the cap1/cap1 pde2/pde2 mutant to near wild type levels”.

The values are drawn from US7270975B2, “Methods for regulating bud-hypha transitions and cAMP levels in Candida albicans” (priority 2001, dated 2007).
